From US20140243401A1, “METHODS OF SCREENING COMPOUNDS THAT ARE CYTOTOXIC TO TUMOR CELLS AND METHODS OF TREATING TUMOR CELLS USING SUCH COMPOUND” (The Johns Hopkins University, priority 2010, published 2014)
Like-named read-outs stand apart in the source and are kept apart here.

Key:
purified rat liver FAS = target: T1, purified rat liver FAS (Rattus norvegicus, UniProt P12785); assay: purified rat Type I FAS, spectrophotometric NADPH oxidation; format: biochemical
T1 construct: Highly purified rat FAS was obtained from starved and induced Sprague-Dawley rat livers; from tissue; host or cells: liver of starved and induced Sprague-Dawley rats
Description: Highly purified rat FAS was obtained from starved and induced Sprague-Dawley rat livers by slight modification of a published procedure.xx [Abraham, S.; Smith, S. Methods Enzymol. 1975, 35B, 65-73.]. Enzyme activity was assayed spectrophotometrically by measuring the decrease in extinction at 340 nm that accompanies the oxidation of NADPH during the overall reaction. The enzyme reaction mixture contained 100 mM KH2PO4 (pH 6.6), 1 mM EDTA, 1 mM dithiothreitol (DTT), 0.10 mM acetylCoA, 0.20 mM NADPH, ˜3 μg FAS and escalating concentrations of inhibitor to be tested were combined in a final volume of 1 mL and assayed at 37° C. for 5 min to monitor malonylCoA-independent oxidation of NADPH. FAS activity was then initiated by addition of 0.2 mM malonyl-CoA.

mitochondrial FAS = assay: 14C-malonate incorporation into lipids of mitochondria isolated from MCF7 cells; format: biochemical, human; details: FIG. 2, vs vehicle
Description: Mammalian mitochondrial FAS activity may be determined in a variety of ways. For example, [14C]malonate may be added to isolated mitochondria, fatty acids are extracted, and then radioactivity is tested. (See Zhang et al., J. Bio. Chem. 278(41): 40067-40074, 2003; Mikolajczyk, J. and Brody, S., Eur. J. Biochem. 187: 431-437, 1990). The mitochondria are purified using methods known in the art. (See Qiagen's Qproteome Mitochondria Isolation Kit; Methods in Enzymology, Vol. 10, Chapter 11, 1967). To test the inhibition of mmFAS activity, a test compound is added to the reaction mixture. Therefore, a test compound may be screened according the methods described herein as follows: (i) isolating mitochondria; (ii) incubating mitochondria with [14C]malonate with and without a test compound; and (iii) determining the quantity of lipids and/or fatty acids produced. By comparing the amount of product in the presence of the test compound to the amount in its absence, the degree of inhibition can be determined.
Mitochondria from MCF7 cells were prepared following manufacturer's protocol (Mitochondria Isolation Kit, Sigma, Saint Louis, Mo.). Rat liver mitochondria were isolated by homogenization with a tissue homogenizer in H-medium (220 mM mannitol, 70 mM sucrose, 2 mM HEPES, and 0.5 g/L of fatty acid free bovine serum albumin, pH 7.4). […]

[1] = test system: AMP-activated protein kinase (AMPK); assay: AMPK activation (pAMPK Western blot) in SKOV3 cells; format: cell-based, human; details: over time, FIG. 8
Description: Another indicator of cellular energy status and metabolic compromise is the activity on the cellular kinase AMP-activated protein kinase (AMPK). AMPK is a master energy sensor. AMPK regulates both enzyme activities and gene expression. When energy levels are low, and ATP levels fall with the concomitant rise in […] levels, AMPK is activated and phosphorylated. When energy levels are surfeit, AMPK is inactivated and not phosphorylated. Thus, AMPK controls metabolic fluxes between anabolic and catabolic states.
We determined the ability of C31 or Riv7d to cause the activation of AMPK in a variety of cancer cells in vitro. SKOV3 cells were cultured in DMEM containing 5 mM glucose medium with 10% fetal calf serum, 0.01 mg/ml insulin and 1% penicillin/streptomycin. Antibodies to pAMPK and AMPK were obtained from Cell Signaling. Cells were grown in 6-well plates at 5×10^4 per well and incubated overnight. Following drug treatment, the cells were harvested in Laemmli buffer and boiled for 5 minutes. Proteins were separated on a 4-15% SDS-PAGE gradient gel and transferred to a nitrocellulose membrane.

[2] = test system: AMP-activated protein kinase (AMPK); assay: AMPK activation (pAMPK Western blot) in MCF 7 cells at varying glucose and oxygen; format: cell-based, human; details: MCF 7, 1 mM or 5 mM glucose, 1% or 21% oxygen, FIGS. 12, 13
Description: FIG. 12 A illustrates the effects of varying oxygen and glucose concentrations on AMPK activation over time in the presence of C31 in MCF 7 cells.
Determination of AMP-activated protein kinase status was carried out using the procedure described above. Cells were grown in 6-well plates at 5×10^4 per well and incubated overnight. Cells were cultured in 1 mM or 5 mM glucose at either 1% or 21% (ambient) oxygen levels. These conditions were employed for treatment with vehicle, C31, or Riv7d. Following drug treatment, the cells were harvested in Laemmli buffer and boiled for 5 minutes. Proteins were separated on a 4-15% SDS-PAGE gradient gel and transferred to a nitrocellulose membrane. Antibodies to pAMPK and AMPK were obtained from Cell Signaling.

[3] = test system: SKOV3 human ovarian cancer cells; assay: JC-1 staining, mitochondrial membrane potential in SKOV3 cells; format: cell-based; details: SKOV3, drug in DMSO applied 30 min prior to staining
Description: JC-1 staining is an indicator of mitochondrial membrane potential; with this assay, mitochondria within cells stained with this fluorescent dye emit a wavelength in the red spectrum when mitochondrial membrane potential is intact. When mitochondria are depolarized, the wavelength of the spectrum emitted changes to green. Therefore, the ratio of red/green fluorescence will give an indication of the intactness of the membrane potential of mitochondria, and thus mitochondrial function.
The left panels show granular red-staining indicating mitochondria with intact membrane potential is brightest in control, and decreases with increasing concentrations of C31. Conversely, the right panels show the diffuse cytoplasmic green-staining which indicates mitochondrial depolarization, is dimmest in control and brightest at the highest concentration of C31 tested. Drug was solubilized in DMSO and applied for 30 min prior to staining.

T1 sequence (P12785 whole entry): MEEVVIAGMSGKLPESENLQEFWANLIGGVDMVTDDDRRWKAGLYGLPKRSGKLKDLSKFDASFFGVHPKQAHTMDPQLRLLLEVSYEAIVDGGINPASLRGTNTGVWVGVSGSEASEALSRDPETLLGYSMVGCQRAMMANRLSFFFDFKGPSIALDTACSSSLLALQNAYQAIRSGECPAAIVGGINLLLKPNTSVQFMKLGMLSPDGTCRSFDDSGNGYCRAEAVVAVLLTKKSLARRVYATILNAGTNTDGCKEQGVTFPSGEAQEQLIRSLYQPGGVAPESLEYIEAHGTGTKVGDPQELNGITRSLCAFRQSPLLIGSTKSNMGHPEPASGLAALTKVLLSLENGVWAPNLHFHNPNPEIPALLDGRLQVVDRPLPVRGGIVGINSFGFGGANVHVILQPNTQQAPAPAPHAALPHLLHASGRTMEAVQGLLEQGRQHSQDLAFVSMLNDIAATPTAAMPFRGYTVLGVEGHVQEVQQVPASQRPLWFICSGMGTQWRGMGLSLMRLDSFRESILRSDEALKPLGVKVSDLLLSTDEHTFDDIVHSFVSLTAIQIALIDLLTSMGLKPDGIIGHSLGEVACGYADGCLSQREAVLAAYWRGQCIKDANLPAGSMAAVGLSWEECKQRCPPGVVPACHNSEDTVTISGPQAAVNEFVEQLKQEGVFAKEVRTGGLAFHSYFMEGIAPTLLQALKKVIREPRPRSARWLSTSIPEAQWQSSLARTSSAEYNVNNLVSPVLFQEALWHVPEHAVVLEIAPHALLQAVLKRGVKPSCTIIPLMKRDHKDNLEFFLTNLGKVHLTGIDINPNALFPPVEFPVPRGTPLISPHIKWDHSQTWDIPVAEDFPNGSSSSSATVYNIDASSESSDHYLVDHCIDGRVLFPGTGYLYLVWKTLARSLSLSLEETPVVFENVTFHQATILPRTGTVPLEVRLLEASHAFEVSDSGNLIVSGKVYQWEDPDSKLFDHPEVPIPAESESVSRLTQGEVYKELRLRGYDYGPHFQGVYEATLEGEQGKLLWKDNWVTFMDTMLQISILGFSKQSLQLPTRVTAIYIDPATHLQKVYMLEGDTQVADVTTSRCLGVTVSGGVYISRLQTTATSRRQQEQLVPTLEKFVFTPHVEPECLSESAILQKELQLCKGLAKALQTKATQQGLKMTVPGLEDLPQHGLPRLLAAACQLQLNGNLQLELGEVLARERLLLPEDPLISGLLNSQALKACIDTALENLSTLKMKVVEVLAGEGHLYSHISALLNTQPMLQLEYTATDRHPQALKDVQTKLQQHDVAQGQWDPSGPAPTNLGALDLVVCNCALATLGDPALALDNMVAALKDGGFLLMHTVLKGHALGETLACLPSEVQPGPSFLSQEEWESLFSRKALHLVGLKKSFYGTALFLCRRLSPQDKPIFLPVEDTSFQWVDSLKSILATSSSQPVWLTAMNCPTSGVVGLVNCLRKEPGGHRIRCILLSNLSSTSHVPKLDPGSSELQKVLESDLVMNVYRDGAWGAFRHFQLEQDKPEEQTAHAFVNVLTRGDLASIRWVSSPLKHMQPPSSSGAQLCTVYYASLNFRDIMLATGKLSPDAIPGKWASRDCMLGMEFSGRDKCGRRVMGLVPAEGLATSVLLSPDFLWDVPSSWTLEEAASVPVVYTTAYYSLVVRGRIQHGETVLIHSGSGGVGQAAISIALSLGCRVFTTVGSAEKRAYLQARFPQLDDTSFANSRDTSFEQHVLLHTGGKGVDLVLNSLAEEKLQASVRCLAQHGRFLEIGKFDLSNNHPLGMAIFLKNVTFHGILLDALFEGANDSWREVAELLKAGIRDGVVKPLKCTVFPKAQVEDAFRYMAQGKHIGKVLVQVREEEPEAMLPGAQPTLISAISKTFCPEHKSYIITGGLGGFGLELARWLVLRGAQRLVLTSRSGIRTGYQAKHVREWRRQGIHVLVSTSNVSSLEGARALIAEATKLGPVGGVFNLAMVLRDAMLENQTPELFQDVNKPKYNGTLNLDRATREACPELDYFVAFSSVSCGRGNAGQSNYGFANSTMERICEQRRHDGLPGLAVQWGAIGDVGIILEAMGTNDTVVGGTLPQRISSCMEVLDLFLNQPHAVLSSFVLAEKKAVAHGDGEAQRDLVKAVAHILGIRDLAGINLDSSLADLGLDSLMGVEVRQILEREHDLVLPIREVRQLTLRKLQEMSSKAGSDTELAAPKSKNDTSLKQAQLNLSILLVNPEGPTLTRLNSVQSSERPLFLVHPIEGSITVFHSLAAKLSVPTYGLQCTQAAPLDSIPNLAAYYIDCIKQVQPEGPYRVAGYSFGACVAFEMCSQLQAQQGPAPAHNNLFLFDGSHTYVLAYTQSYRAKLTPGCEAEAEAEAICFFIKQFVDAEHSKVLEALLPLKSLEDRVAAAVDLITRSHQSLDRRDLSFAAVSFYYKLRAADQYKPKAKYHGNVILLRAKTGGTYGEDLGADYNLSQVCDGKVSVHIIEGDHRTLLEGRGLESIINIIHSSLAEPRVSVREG

CCCCCCCCC1(C)SC(=O)C=C1OCC(=O)Nc1ccc(Cl)cc1 (stereo not drawn) [Compound C31]
IC50 (purified rat liver FAS): 42 µM
IC50 (purified rat liver FAS; approximate): ~41 µM
effect on 14C-malonate incorporation into lipids of isolated mitochondria (mitochondrial FAS): inhibited the incorporation of malonate into lipids in a dose-dependent manner
AMPK activation (pAMPK levels, Western blot) [1]: rapid activation of AMPK
AMPK phosphorylation (quantitative Western blots) [2]: increased phosphorylation of AMPK
mitochondrial depolarization (JC-1 staining) [3]: depolarization of the mitochondria in the SKOV3 human ovarian cancer cells which is dose-dependent
